The values that follow come from PubChem BioAssay AID1259407 (Chemical Carcinogenesis Research Information System (CCRIS), 2018).

Activity calls are given as the source filed them. How the calls were made is not given here.

This data set relates to CCRIS mutagenicity, Ames/micronucleus/aberration tests. In words: CCRIS mutagenicity studies.
The mark [1] stands for this setting: Test System: AMES SALMONELLA TYPHIMURIUM, Strain/Indicator: TA98, Metabolic Activation: NONE, Method: STANDARD PLATE.
Setting [2] is: Test System: AMES SALMONELLA TYPHIMURIUM, Strain/Indicator: TA100, Metabolic Activation: NONE, Method: STANDARD PLATE.
[3] abbreviates: Test System: AMES SALMONELLA TYPHIMURIUM, Strain/Indicator: TA1535, Metabolic Activation: NONE, Method: STANDARD PLATE.
Setting [4] is: Test System: AMES SALMONELLA TYPHIMURIUM, Strain/Indicator: TA1537, Metabolic Activation: NONE, Method: STANDARD PLATE.
Setting [5] is: Test System: AMES SALMONELLA TYPHIMURIUM, Strain/Indicator: TA1538, Metabolic Activation: NONE, Method: STANDARD PLATE.

For the molecule `C=C(C)C(=O)OCCCC`, the mutagenic call by setting is: (Test System: AMES SALMONELLA TYPHIMURIUM, Strain/Indicator: TA98, Metabolic Activation: HAMSTER, LIVER, S-9, AROCLOR 1254 (10%), Method: PREINCUBATION) “inactive; negative”; (Test System: AMES SALMONELLA TYPHIMURIUM, Strain/Indicator: TA98, Metabolic Activation: NONE, Method: PREINCUBATION) “inactive; negative”; under setting [1], “inactive; negative”; (Test System: AMES SALMONELLA TYPHIMURIUM, Strain/Indicator: TA98, Metabolic Activation: RAT LIVER S-9, PHENOBARBITAL AND BETA-NAPHTHOFLAVONE, Method: PREINCUBATION) “inactive; negative”; (Test System: AMES SALMONELLA TYPHIMURIUM, Strain/Indicator: TA98, Metabolic Activation: RAT, LIVER, S-9, AROCLOR 1254 (10%), Method: PREINCUBATION) “inactive; negative”; (Test System: AMES SALMONELLA TYPHIMURIUM, Strain/Indicator: TA98, Metabolic Activation: RAT, LIVER, S-9, AROCLOR 1254, Method: STANDARD PLATE) “inactive; negative”. Further, the mutagenic call was “inactive; negative” (Test System: AMES SALMONELLA TYPHIMURIUM, Strain/Indicator: TA98, Metabolic Activation: RAT, LIVER, S-9, SODIUM PHENOBARBITAL, Method: STANDARD PLATE); “inactive; negative” (Test System: AMES SALMONELLA TYPHIMURIUM, Strain/Indicator: TA100, Metabolic Activation: HAMSTER, LIVER, S-9, AROCLOR 1254 (10%), Method: PREINCUBATION); “inactive; negative” (Test System: AMES SALMONELLA TYPHIMURIUM, Strain/Indicator: TA100, Metabolic Activation: NONE, Method: PREINCUBATION); “inactive; negative” under setting [2]; “inactive; negative” (Test System: AMES SALMONELLA TYPHIMURIUM, Strain/Indicator: TA100, Metabolic Activation: RAT LIVER S-9, PHENOBARBITAL AND BETA-NAPHTHOFLAVONE, Method: PREINCUBATION); “inactive; negative” (Test System: AMES SALMONELLA TYPHIMURIUM, Strain/Indicator: TA100, Metabolic Activation: RAT, LIVER, S-9, AROCLOR 1254 (10%), Method: PREINCUBATION). In addition, the mutagenic call (Test System: AMES SALMONELLA TYPHIMURIUM, Strain/Indicator: TA100, Metabolic Activation: RAT, LIVER, S-9, AROCLOR 1254, Method: STANDARD PLATE) is “inactive; negative”; the mutagenic call (Test System: AMES SALMONELLA TYPHIMURIUM, Strain/Indicator: TA100, Metabolic Activation: RAT, LIVER, S-9, SODIUM PHENOBARBITAL, Method: STANDARD PLATE) was “inactive; negative”; the mutagenic call (Test System: AMES SALMONELLA TYPHIMURIUM, Strain/Indicator: TA1535, Metabolic Activation: HAMSTER, LIVER, S-9, AROCLOR 1254 (10%), Method: PREINCUBATION) was “inactive; negative”; the mutagenic call (Test System: AMES SALMONELLA TYPHIMURIUM, Strain/Indicator: TA1535, Metabolic Activation: NONE, Method: PREINCUBATION) is “inactive; negative”; the mutagenic call under setting [3] is “inactive; negative”; the mutagenic call (Test System: AMES SALMONELLA TYPHIMURIUM, Strain/Indicator: TA1535, Metabolic Activation: RAT LIVER S-9, PHENOBARBITAL AND BETA-NAPHTHOFLAVONE, Method: PREINCUBATION) is “inactive; negative”. Besides, the mutagenic call reads like this: (Test System: AMES SALMONELLA TYPHIMURIUM, Strain/Indicator: TA1535, Metabolic Activation: RAT, LIVER, S-9, AROCLOR 1254 (10%), Method: PREINCUBATION) “inactive; negative”; (Test System: AMES SALMONELLA TYPHIMURIUM, Strain/Indicator: TA1535, Metabolic Activation: RAT, LIVER, S-9, AROCLOR 1254, Method: STANDARD PLATE) “inactive; negative”; (Test System: AMES SALMONELLA TYPHIMURIUM, Strain/Indicator: TA1535, Metabolic Activation: RAT, LIVER, S-9, SODIUM PHENOBARBITAL, Method: STANDARD PLATE) “inactive; negative”; (Test System: AMES SALMONELLA TYPHIMURIUM, Strain/Indicator: TA1537, Metabolic Activation: HAMSTER, LIVER, S-9, AROCLOR 1254 (10%), Method: PREINCUBATION) “inactive; negative”; (Test System: AMES SALMONELLA TYPHIMURIUM, Strain/Indicator: TA1537, Metabolic Activation: NONE, Method: PREINCUBATION) “inactive; negative”; under setting [4], “inactive; negative”. Also, the mutagenic call runs as follows: (Test System: AMES SALMONELLA TYPHIMURIUM, Strain/Indicator: TA1537, Metabolic Activation: RAT LIVER S-9, PHENOBARBITAL AND BETA-NAPHTHOFLAVONE, Method: PREINCUBATION) “inactive; negative”; (Test System: AMES SALMONELLA TYPHIMURIUM, Strain/Indicator: TA1537, Metabolic Activation: RAT, LIVER, S-9, AROCLOR 1254 (10%), Method: PREINCUBATION) “inactive; negative”; (Test System: AMES SALMONELLA TYPHIMURIUM, Strain/Indicator: TA1537, Metabolic Activation: RAT, LIVER, S-9, AROCLOR 1254, Method: STANDARD PLATE) “inactive; negative”; (Test System: AMES SALMONELLA TYPHIMURIUM, Strain/Indicator: TA1537, Metabolic Activation: RAT, LIVER, S-9, SODIUM PHENOBARBITAL, Method: STANDARD PLATE) “inactive; negative”; under setting [5], “inactive; negative”; (Test System: AMES SALMONELLA TYPHIMURIUM, Strain/Indicator: TA1538, Metabolic Activation: RAT, LIVER, S-9, AROCLOR 1254, Method: STANDARD PLATE) “inactive; negative”. Besides, the mutagenic call is “inactive; negative” (Test System: AMES SALMONELLA TYPHIMURIUM, Strain/Indicator: TA1538, Metabolic Activation: RAT, LIVER, S-9, SODIUM PHENOBARBITAL, Method: STANDARD PLATE); “inactive; negative” (Test System: E.COLI, Strain/Indicator: WP2UVRA/PKM101, Metabolic Activation: NONE, Method: PREINCUBATION); “inactive; negative” (Test System: E.COLI, Strain/Indicator: WP2UVRA/PKM101, Metabolic Activation: RAT LIVER S-9, PHENOBARBITAL AND BETA-NAPHTHOFLAVONE, Method: PREINCUBATION).
For the molecule `ClCCNCCCNc1c2ccccc2nc2ccccc12`, the mutagenic call is “active; positive” under setting [1]; “active; positive” under setting [2]; “active; positive” under setting [3]; “active; positive” (Test System: AMES SALMONELLA TYPHIMURIUM, Strain/Indicator: TA1536, Metabolic Activation: NONE, Method: STANDARD PLATE); “active; positive” under setting [4]; “active; positive” under setting [5].
With `O=C1C=CCO1`, the mutagenic call reads like this: (Test System: AMES SALMONELLA TYPHIMURIUM, Strain/Indicator: TA98, Metabolic Activation: RAT, LIVER, MICROSOMES, PHENOBARBITAL, Method: STANDARD PLATE) “inactive; negative”; (Test System: AMES SALMONELLA TYPHIMURIUM, Strain/Indicator: TA100, Metabolic Activation: RAT, LIVER, MICROSOMES, PHENOBARBITAL, Method: STANDARD PLATE) “inactive; negative”.
Take `O=[N+]([O-])c1ccc2c3c(cccc13)-c1cc3ccccc3cc1-2`: the mutagenic call under setting [1] is “active; positive”.
